Test results taken from patent publication US12473289B2, “Heterocyclic compounds as delta-5 desaturase inhibitors and methods of use” (Amgen Inc., priority 2019, dated 2025).

target: Delta-5-Desaturase (D5D) (Homo sapiens (Human), UniProt O60427); assay: In vitro measurement of Delta-5-Desaturase inhibitory activity using DGLA-CoA and Arachidonyl-CoA mass spectrometric assays; format: biochemical; conditions: membrane preparations of D5D-overexpressing HEK293 6E cells; averaged over at least two independent runs
Summary of the method: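 Membranes from D5D-overexpressing HEK293 6E cells (10 μg/mL final) in Tris pH 7.5 with MgCl2, octyl glucoside and TCEP were mixed 1:1 with substrate solution (0.01 mM DGLA, 0.25 mM NADH, 0.25 mM ATP, 0.05 mM CoA) for 1 h at ambient temperature. RapidFire SPE-MS/MS MRM; IC50 by 4-parameter fit, ≥2 runs.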

Delta-5-Desaturase (D5D), sequence (O60427 whole entry, species assumed): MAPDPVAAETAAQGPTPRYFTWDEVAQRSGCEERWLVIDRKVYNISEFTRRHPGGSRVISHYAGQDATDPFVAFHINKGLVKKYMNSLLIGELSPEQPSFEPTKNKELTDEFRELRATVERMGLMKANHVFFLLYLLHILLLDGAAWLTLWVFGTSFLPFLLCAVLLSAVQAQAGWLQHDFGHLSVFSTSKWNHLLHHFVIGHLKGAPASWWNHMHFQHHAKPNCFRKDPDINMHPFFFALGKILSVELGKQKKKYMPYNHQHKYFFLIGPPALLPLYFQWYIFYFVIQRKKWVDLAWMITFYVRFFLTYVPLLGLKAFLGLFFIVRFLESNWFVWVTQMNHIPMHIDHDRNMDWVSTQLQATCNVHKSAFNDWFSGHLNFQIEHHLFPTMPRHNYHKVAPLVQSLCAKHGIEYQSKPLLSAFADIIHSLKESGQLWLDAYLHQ

IC50	Structure (SMILES)
1720 nM	CC(=O)Nc1ccn2c(=O)c(-c3ccc(OCC(F)(F)F)cc3)c(C(F)(F)F)nc2c1 [Example 1-31, N-(4-oxo-3-(4-(2,2,2-trifluoroethoxy)phenyl)-2-(trifluoromethyl)-4H-pyrido[1,2-a]pyrimidin-8-yl)acetamide]
4.1 nM	COc1cc2nc(C(F)(F)F)c(-c3ccc(OCC(F)(F)F)cc3)c(=O)n2cc1F [Example 39-57, 7-fluoro-8-methoxy-3-[4-(2,2,2-trifluoroethoxy)phenyl]-2-(trifluoromethyl)-4H-pyrido[1,2-a]pyrimidin-4-one]
605 nM	COc1ccn2c(=O)c(-c3ccc(OCC(F)(F)F)cc3C(F)(F)F)c(C(F)(F)F)nc2c1 [Example 8-2, 8-methoxy-3-(4-(2,2,2-trifluoroethoxy)-2-(trifluoromethyl)phenyl)-2-(trifluoromethyl)-4H-pyrido[1,2-a]pyrimidin-4-one]
3.2 nM	[2H]C([2H])([2H])Oc1ccn2c(=O)c(-c3ccc(OCC4CC4)cc3)c(C(F)(F)F)nc2c1 [Example 1-65, 3-(4-(cyclopropylmethoxy)phenyl)-8-(methyloxy-d3)-2-(trifluoromethyl)-4H-pyrido[1,2-a]pyrimidin-4-one]
6.3 nM	COc1cc2nc(C(F)(F)F)c(-c3cnn(CC(F)(F)C(F)(F)F)c3)c(=O)n2cn1 [Example 39-10, 8-methoxy-3-[1-(2,2,3,3,3-pentafluoropropyl)-1H-pyrazol-4-yl]-2-(trifluoromethyl)-4H-[1,3]diazino[1,6-a]pyrimidin-4-one]
248 nM	COc1ccn2c(=O)c(-c3cnc(OCC(F)(F)F)nc3)c(C(F)(F)F)nc2n1 [Example 39-13, 8-methoxy-3-[2-(2,2,2-trifluoroethoxy)pyrimidin-5-yl]-2-(trifluoromethyl)-4H-[1,3]diazino[1,2-a]pyrimidin-4-one]
56 nM	CC(=O)Nc1ccn2c(=O)c(-c3cnn(CC(F)(F)C(F)(F)F)c3)c(C(F)(F)F)nc2c1 [Example 1-82, N-(4-oxo-3-(1-(2,2,3,3,3-pentafluoropropyl)-1H-pyrazol-4-yl)-2-(trifluoromethyl)-4H-pyrido[1,2-a]pyrimidin-8-yl)acetamide]
191 nM	CC[S@+]([O-])c1ccn2c(=O)c(-c3ccc(OCC(F)(F)F)cc3)c(C(F)(F)F)nc2c1 [Example 15-9, 8-((S)-ethylsulfinyl)-3-(4-(2,2,2-trifluoroethoxy)phenyl)-2-(trifluoromethyl)-4H-pyrido[1,2-a]pyrimidin-4-one]
22.3 nM	CCOc1nc2cc(OC)ccn2c(=O)c1-c1cnn(CC(F)(F)C(F)(F)F)c1 [Example 41-4, 2-ethoxy-8-methoxy-3-[1-(2,2,3,3,3-pentafluoropropyl)-1H-pyrazol-4-yl]-4H-pyrido[1,2-a]pyrimidin-4-one]
20.5 nM	O=c1c(-c2cnn(CC(F)(F)C(F)(F)F)c2)c(C(F)(F)F)nc2cc(CF)ccn12 [Example 13-2, 8-(fluoromethyl)-3-(1-(2,2,3,3,3-pentafluoropropyl)-1H-pyrazol-4-yl)-2-(trifluoromethyl)-4H-pyrido[1,2-a]pyrimidin-4-one]
305 nM	COc1ccn2c(=O)c(-c3ccc(CC#N)cc3)c(C(F)(F)F)nc2c1 [Example 1-2, (4-(8-methoxy-4-oxo-2-(trifluoromethyl)-4H-pyrido[1,2-a]pyrimidin-3-yl)phenyl)acetonitrile]
8.2 nM	O=c1c(-c2cnn(CC(F)(F)C(F)(F)F)c2)c(C(F)(F)F)nc2cc(Cl)ccn12 [Example 2-6, 8-chloro-3-(1-(2,2,3,3,3-pentafluoropropyl)-1H-pyrazol-4-yl)-2-(trifluoromethyl)-4H-pyrido[1,2-a]pyrimidin-4-one]
25.4 nM	C=Cc1ccn2c(=O)c(-c3ccc(OCC(F)(F)F)cc3)c(C(F)(F)F)nc2c1 [Example 2-8, 8-ethenyl-3-(4-(2,2,2-trifluoroethoxy)phenyl)-2-(trifluoromethyl)-4H-pyrido[1,2-a]pyrimidin-4-one]
3.7 nM	O=c1c(-c2cnn(CC(F)(F)C(F)(F)F)c2)c(C(F)(F)F)nc2cnccn12 [Example 39-25, 3-[1-(2,2,3,3,3-pentafluoropropyl)-1H-pyrazol-4-yl]-2-(trifluoromethyl)-4H-pyrazino[1,2-a]pyrimidin-4-one]
27.6 nM	COc1ccn2c(=O)c(-c3cnn(CC(F)(F)F)c3)c(C(F)(F)F)nc2c1 [Example 1-74, 8-methoxy-3-(1-(2,2,2-trifluoroethyl)-1H-pyrazol-4-yl)-2-(trifluoromethyl)-4H-pyrido[1,2-a]pyrimidin-4-one]
34.2 nM	COc1ccn2c(=O)c(-c3ccc(OCC(F)(F)F)cc3)c(C)nc2c1 [Example 1-67, 8-methoxy-2-methyl-3-(4-(2,2,2-trifluoroethoxy)phenyl)-4H-pyrido[1,2-a]pyrimidin-4-one]
105 nM	Cc1cnn2c(=O)c(-c3ccc(OCC(F)(F)F)cc3)c(C(F)(F)F)nc2c1 [Example 39-50, 8-methyl-3-[4-(2,2,2-trifluoroethoxy)phenyl]-2-(trifluoromethyl)-4H-pyrimido[1,2-b]pyridazin-4-one]
31.7 nM	COc1cc2nc(C(F)(F)F)c(-c3cnn(C[C@H]4CC4(F)F)c3)c(=O)n2cc1F [Example 71, 3-(1-(((1R)-2,2-difluorocyclopropyl)methyl)-1H-pyrazol-4-yl)-7-fluoro-8-methoxy-2-(trifluoromethyl)-4H-pyrido[1,2-a]pyrimidin-4-one]
11.9 nM	COc1ccn2c(=O)c(-c3ccc(CCC(F)(F)F)cc3)c(C(F)(F)F)nc2c1 [Example 7-5, 8-methoxy-2-(trifluoromethyl)-3-(4-(3,3,3-trifluoropropyl)phenyl)-4H-pyrido[1,2-a]pyrimidin-4-one]
> 67000 nM	COc1ccn2c(=O)c(-c3cccc(OCC(F)(F)F)c3)c(C(F)(F)F)nc2c1 [Example 62, 8-Methoxy-3-[3-(2,2,2-trifluoroethoxy)phenyl]-2-(trifluoromethyl)-4H-pyrido[1,2-a]pyrimidin-4-one]
188 nM	COc1ccn2c(=O)c(-c3cnn(CC(F)(F)C(F)(F)F)c3)c(C(F)(F)F)nc2c1Cl [Example 39-3, 9-chloro-8-methoxy-3-[1-(2,2,3,3,3-pentafluoropropyl)-1H-pyrazol-4-yl]-2-(trifluoromethyl)-4H-pyrido[1,2-a]pyrimidin-4-one]
197 nM	COc1ccn2c(=O)c(-c3ccc(CCC#N)cc3)c(C(F)(F)F)nc2c1 [Example 1-1, 3-(4-(8-Methoxy-4-oxo-2-(trifluoromethyl)-4H-pyrido[1,2-a]pyrimidin-3-yl)phenyl)propanenitrile]
53.9 nM	CCc1nc2cc(OC)ccn2c(=O)c1-c1cnn(CC(F)(F)C(F)(F)F)c1 [Example 3-1, 2-Ethyl-8-methoxy-3-(1-(2,2,3,3,3-pentafluoropropyl)-1H-pyrazol-4-yl)-4H-pyrido[1,2-a]pyrimidin-4-one]

Structure (SMILES)	IC50
O=c1c(-c2ccc(OCC(F)(F)F)cc2)c(C(F)(F)F)nc2cc(C(F)(F)F)ccn12 [Example 4-1, 3-(4-(2,2,2-Trifluoroethoxy)phenyl)-2,8-bis(trifluoromethyl)-4H-pyrido[1,2-a]pyrimidin-4-one]	5220 nM
CN(C(=O)F)c1ccn2c(=O)c(-c3cnn(CC(F)(F)C(F)(F)F)c3)c(C(F)(F)F)nc2c1 [Example 23, Methyl(4-oxo-3-(1-(2,2,3,3,3-pentafluoropropyl)-1H-pyrazol-4-yl)-2-(trifluoromethyl)-4H-pyrido[1,2-a]pyrimidin-8-yl)carbamyl fluoride]	1.6 nM
